Assays:
Test in all cases: Sensitivity test (agar dilution), clinical isolate
B. cepacia 14429 = assay type: cell-based, Burkholderia cepacia
Protocol: (§1) In addition, the antibacterial activities were tested against strains which are comparatively less sensitive to β-lactam compounds, namely clinically isolated 13 strains of Acinetobacter calcoaceticus and Acinetobacter lwoffi, clinically isolated 11 strains of Serratia marcescens, clinically isolated 12 strains of Burkholderia cepacia, and clinically isolated 15 strains of Pseudomonas aeruginosa.
(§2) According to the standard method of Japan Chemotherapeutic Society (Chemotherapy, vol. […], p 76-79 (1981)) the test was carried out using the agar dilution method. After dissolving test samples in distilled water, agar medium containing the test samples was prepared in such a manner that the final concentration became twice serial dilution by pouring serially diluted combination drug solution or a single drug solution into agar medium. As agar medium was used Mueller Hinton Agar medium (MHA). Then, each strain was cultivated over night at 37° C. in an incubator and suspended in buffered saline solution with gelatin (BSG) in the concentration of about 10^6 CFU/ml. The suspension (about 5 μl) containing test strains was inoculated to the medium containing the test samples by Micro Planter.
(§3) Each drug was weighed, and dissolved in distilled water to give a test sample. When the drugs are used in combination, two kinds of solution containing each drug were mixed so as to be various ratio of concentration to give a mixed solution. When the sample is subjected to sensitivity test, this mixed solution was diluted by twice serial dilution method.
(§4) Furthermore, when the drug is solely used, each test sample was used as it is, and diluted by twice serial dilution method from the maximum concentration to the minimum concentration.

B. cepacia 14300 = assay type: cell-based, Burkholderia cepacia
Protocol: as §1, §2, §3, §4

B. cepacia 1892324 = assay type: cell-based, Burkholderia cepacia
Protocol: as §1, §2, §3, §4

B. cepacia 7247 = assay type: cell-based, Burkholderia cepacia
Protocol: as §1, §2, §3, §4

B. cepacia 3138 = assay type: cell-based, Burkholderia cepacia
Protocol: as §1, §2, §3, §4

B. cepacia 14428 = assay type: cell-based, Burkholderia cepacia
Protocol: as §1, §2, §3, §4

B. cepacia 1993527 = assay type: cell-based, Burkholderia cepacia
Protocol: as §1, §2, §3, §4

B. cepacia 257-1 = assay type: cell-based, Burkholderia cepacia
Protocol: as §1, §2, §3, §4

B. cepacia 14430 = assay type: cell-based, Burkholderia cepacia
Protocol: as §1, §2, §3, §4

B. cepacia 14607 = assay type: cell-based, Burkholderia cepacia
Protocol: as §1, §2, §3, §4

P. aeruginosa 13272 = assay type: cell-based, Pseudomonas aeruginosa
Protocol: as §1, §2, §3, §4

P. aeruginosa 15040 = assay type: cell-based, Pseudomonas aeruginosa
Protocol: as §1, §2, §3, §4

P. aeruginosa 13224 = assay type: cell-based, Pseudomonas aeruginosa
Protocol: as §1, §2, §3, §4

P. aeruginosa 13269 = assay type: cell-based, Pseudomonas aeruginosa
Protocol: as §1, §2, §3, §4

P. aeruginosa 15019 = assay type: cell-based, Pseudomonas aeruginosa
Protocol: as §1, §2, §3, §4

SMILES: C[C@@H](O)[C@H]1C(=O)N2C(C(=O)O)=C(S[C@@H]3CN[C@H](C(=O)N(C)C)C3)[C@H](C)[C@H]12 [MEPM, meropenem]
- MIC (B. cepacia 14429; Burkholderia cepacia, 14429, Concomitant (ME:SM = 1:1)): 1 µg/mL
- MIC (B. cepacia 14429; Burkholderia cepacia, 14429, Concomitant (ME:SM = 1:2)): 0.5 µg/mL
- MIC (B. cepacia 14429; Burkholderia cepacia, 14429, Concomitant (ME:SM = 1:4)): 0.5 µg/mL
- MIC (B. cepacia 14429; Burkholderia cepacia, 14429, Concomitant (ME:SM = 2:1)): 1 µg/mL
- MIC (B. cepacia 14429; Burkholderia cepacia, 14429, alone): 1 µg/mL
- MIC (B. cepacia 14300; Burkholderia cepacia, 14300, Concomitant (ME:SM = 1:1)): 0.5 µg/mL
- MIC (B. cepacia 14300; Burkholderia cepacia, 14300, Concomitant (ME:SM = 1:2)): 0.5 µg/mL
- MIC (B. cepacia 14300; Burkholderia cepacia, 14300, Concomitant (ME:SM = 1:4)): 0.25 µg/mL
- MIC (B. cepacia 14300; Burkholderia cepacia, 14300, Concomitant (ME:SM = 2:1)): 0.5 µg/mL
- MIC (B. cepacia 14300; Burkholderia cepacia, 14300, alone): 0.5 µg/mL
- MIC (B. cepacia 1892324; Burkholderia cepacia, 1892324, Concomitant (ME:SM = 1:1)): 1 µg/mL
- MIC (B. cepacia 1892324; Burkholderia cepacia, 1892324, Concomitant (ME:SM = 1:2)): 1 µg/mL
- MIC (B. cepacia 1892324; Burkholderia cepacia, 1892324, Concomitant (ME:SM = 1:4)): 0.5 µg/mL
- MIC (B. cepacia 1892324; Burkholderia cepacia, 1892324, Concomitant (ME:SM = 2:1)): 2 µg/mL
- MIC (B. cepacia 1892324; Burkholderia cepacia, 1892324, alone): 2 µg/mL
- MIC (B. cepacia 7247; Burkholderia cepacia, 7247, Concomitant (ME:SM = 1:1)): 2 µg/mL
- MIC (B. cepacia 7247; Burkholderia cepacia, 7247, Concomitant (ME:SM = 1:2)): 2 µg/mL
- MIC (B. cepacia 7247; Burkholderia cepacia, 7247, Concomitant (ME:SM = 1:4)): 2 µg/mL
- MIC (B. cepacia 7247; Burkholderia cepacia, 7247, Concomitant (ME:SM = 2:1)): 2 µg/mL
- MIC (B. cepacia 7247; Burkholderia cepacia, 7247, alone): 2 µg/mL
- MIC (B. cepacia 3138; Burkholderia cepacia, 3138, Concomitant (ME:SM = 1:1)): 1 µg/mL
- MIC (B. cepacia 3138; Burkholderia cepacia, 3138, Concomitant (ME:SM = 1:2)): 1 µg/mL
- MIC (B. cepacia 3138; Burkholderia cepacia, 3138, Concomitant (ME:SM = 1:4)): 2 µg/mL
- MIC (B. cepacia 3138; Burkholderia cepacia, 3138, Concomitant (ME:SM = 2:1)): 2 µg/mL
- MIC (B. cepacia 3138; Burkholderia cepacia, 3138, alone): 2 µg/mL
- MIC (B. cepacia 14428; Burkholderia cepacia, 14428, Concomitant (ME:SM = 1:1)): 1 µg/mL
- MIC (B. cepacia 14428; Burkholderia cepacia, 14428, Concomitant (ME:SM = 1:2)): 1 µg/mL
- MIC (B. cepacia 14428; Burkholderia cepacia, 14428, Concomitant (ME:SM = 1:4)): 0.5 µg/mL
- MIC (B. cepacia 14428; Burkholderia cepacia, 14428, Concomitant (ME:SM = 2:1)): 1 µg/mL
- MIC (B. cepacia 14428; Burkholderia cepacia, 14428, alone): 2 µg/mL
- MIC (B. cepacia 1993527; Burkholderia cepacia, 1993527, Concomitant (ME:SM = 1:1)): 1 µg/mL
- MIC (B. cepacia 1993527; Burkholderia cepacia, 1993527, Concomitant (ME:SM = 1:2)): 1 µg/mL
- MIC (B. cepacia 1993527; Burkholderia cepacia, 1993527, Concomitant (ME:SM = 1:4)): 2 µg/mL
- MIC (B. cepacia 1993527; Burkholderia cepacia, 1993527, Concomitant (ME:SM = 2:1)): 2 µg/mL
- MIC (B. cepacia 1993527; Burkholderia cepacia, 1993527, alone): 2 µg/mL
- MIC (B. cepacia 257-1; Burkholderia cepacia, 2571, Concomitant (ME:SM = 1:1)): 0.5 µg/mL
- MIC (B. cepacia 257-1; Burkholderia cepacia, 2571, Concomitant (ME:SM = 1:2)): 0.25 µg/mL
- MIC (B. cepacia 257-1; Burkholderia cepacia, 2571, Concomitant (ME:SM = 1:4)): 0.25 µg/mL
- MIC (B. cepacia 257-1; Burkholderia cepacia, 2571, Concomitant (ME:SM = 2:1)): 0.5 µg/mL
- MIC (B. cepacia 257-1; Burkholderia cepacia, 2571, alone): 0.5 µg/mL
- MIC (B. cepacia 14430; Burkholderia cepacia, 14430, Concomitant (ME:SM = 1:1)): 1 µg/mL
- MIC (B. cepacia 14430; Burkholderia cepacia, 14430, Concomitant (ME:SM = 1:2)): 1 µg/mL
- MIC (B. cepacia 14430; Burkholderia cepacia, 14430, Concomitant (ME:SM = 1:4)): 2 µg/mL
- MIC (B. cepacia 14430; Burkholderia cepacia, 14430, Concomitant (ME:SM = 2:1)): 2 µg/mL
- MIC (B. cepacia 14430; Burkholderia cepacia, 14430, alone): 2 µg/mL
- MIC (B. cepacia 14607; Burkholderia cepacia, 14607, Concomitant (ME:SM = 1:1)): 1 µg/mL
- MIC (B. cepacia 14607; Burkholderia cepacia, 14607, Concomitant (ME:SM = 1:2)): 0.5 µg/mL
- MIC (B. cepacia 14607; Burkholderia cepacia, 14607, Concomitant (ME:SM = 1:4)): 0.5 µg/mL
- MIC (B. cepacia 14607; Burkholderia cepacia, 14607, Concomitant (ME:SM = 2:1)): 1 µg/mL
- MIC (B. cepacia 14607; Burkholderia cepacia, 14607, alone): 1 µg/mL
- MIC (P. aeruginosa 13272; Pseudomonas aeruginosa, 13272, Concomitant (ME:SM = 1:1)): 4 µg/mL
- MIC (P. aeruginosa 13272; Pseudomonas aeruginosa, 13272, Concomitant (ME:SM = 1:2)): 2 µg/mL
- MIC (P. aeruginosa 13272; Pseudomonas aeruginosa, 13272, Concomitant (ME:SM = 1:4)): 2 µg/mL
- MIC (P. aeruginosa 13272; Pseudomonas aeruginosa, 13272, Concomitant (ME:SM = 2:1)): 4 µg/mL
- MIC (P. aeruginosa 13272; Pseudomonas aeruginosa, 13272, alone): 4 µg/mL
- MIC (P. aeruginosa 15040; Pseudomonas aeruginosa, 15040, Concomitant (ME:SM = 1:1)): 4 µg/mL
- MIC (P. aeruginosa 15040; Pseudomonas aeruginosa, 15040, Concomitant (ME:SM = 1:2)): 2 µg/mL
- MIC (P. aeruginosa 15040; Pseudomonas aeruginosa, 15040, Concomitant (ME:SM = 1:4)): 2 µg/mL
- MIC (P. aeruginosa 15040; Pseudomonas aeruginosa, 15040, Concomitant (ME:SM = 2:1)): 4 µg/mL
- MIC (P. aeruginosa 15040; Pseudomonas aeruginosa, 15040, alone): 4 µg/mL
- MIC (P. aeruginosa 13224; Pseudomonas aeruginosa, 13224, Concomitant (ME:SM = 1:1)): 4 µg/mL
- MIC (P. aeruginosa 13224; Pseudomonas aeruginosa, 13224, Concomitant (ME:SM = 1:2)): 2 µg/mL
- MIC (P. aeruginosa 13224; Pseudomonas aeruginosa, 13224, Concomitant (ME:SM = 1:4)): 2 µg/mL
- MIC (P. aeruginosa 13224; Pseudomonas aeruginosa, 13224, Concomitant (ME:SM = 2:1)): 4 µg/mL
- MIC (P. aeruginosa 13224; Pseudomonas aeruginosa, 13224, alone): 4 µg/mL
- MIC (P. aeruginosa 13269; Pseudomonas aeruginosa, 13269, Concomitant (ME:SM = 1:1)): 4 µg/mL
- MIC (P. aeruginosa 13269; Pseudomonas aeruginosa, 13269, Concomitant (ME:SM = 1:2)): 2 µg/mL
- MIC (P. aeruginosa 13269; Pseudomonas aeruginosa, 13269, Concomitant (ME:SM = 1:4)): 2 µg/mL
- MIC (P. aeruginosa 13269; Pseudomonas aeruginosa, 13269, Concomitant (ME:SM = 2:1)): 4 µg/mL
- MIC (P. aeruginosa 13269; Pseudomonas aeruginosa, 13269, alone): 4 µg/mL
- MIC (P. aeruginosa 15019; Pseudomonas aeruginosa, 15019, Concomitant (ME:SM = 1:1)): 4 µg/mL
- MIC (P. aeruginosa 15019; Pseudomonas aeruginosa, 15019, Concomitant (ME:SM = 1:2)): 4 µg/mL
- MIC (P. aeruginosa 15019; Pseudomonas aeruginosa, 15019, Concomitant (ME:SM = 1:4)): 2 µg/mL
- MIC (P. aeruginosa 15019; Pseudomonas aeruginosa, 15019, Concomitant (ME:SM = 2:1)): 4 µg/mL
- MIC (P. aeruginosa 15019; Pseudomonas aeruginosa, 15019, alone): 4 µg/mL
